Data reported in US20030216257A1, “1-aryl-4-alkyl halide-2(1h)-pyridones and their use as herbicides” (priority 2000, published 2003).

What was measured:
Test in all cases: Greenhouse experiments, herbicidal action (pre-/post-emergence treatment)
Type in all cases: in vivo
Settings in all cases: post-emergence rate 0.0313 and 0.0156 kg of a.S./ha, scale 0 to 100
[1] = system: GALAP (catchweed bedstraw)
Source text: (§1) The culture containers used were plastic pots with loamy sand containing approximately 3.0% of humus as the substrate. The seeds of the test plants were sown separately for each species.
(§2) For the pre-emergence treatment, the active compounds, which had been suspended or emulsified in water, were applied directly after seeding by means of finely distributing nozzles. The containers were irrigated gently to promote germination and growth and subsequently covered with transparent plastic hoods until the plants had taken root. This cover causes uniform germination of the test plants unless this was not adversely affected by the active compounds.
(§3) For the post-emergence treatment, the test plants were initially grown to a height of 3 to 15 cm, depending on the habit, and then treated with the active compounds which had been suspended or emulsified in water. To this end, the test plants were either sown directly and cultivated in the same containers, or they were initially cultivated separately as seedlings and transplanted into the test containers a few days prior to the treatment. The application rate for the post-emergence treatment was 0.0313 and 0.0156 kg of a. S./ha.
(§4) The plants were kept at temperatures of 10-25° C. and 20-35° C., depending on the species. The test period extended over 2 to 4 weeks. During this time, the plants were tended, and their reaction to the individual treatments was evaluated.
(§5) Evaluation was carried out using a scale from 0 to 100. 100 means no emergence of the plants, or complete destruction of at least the above-ground parts, and 0 means no damage or normal course of growth.
(§6) The plants used in the greenhouse experiments were of the following species: […]

AMARE (redroot pigweed) = system: AMARE (redroot pigweed)
Source text: as §1, §2, §3, §4, §5, §6

COMBE (dayflower) = system: COMBE (dayflower)
Source text: as §1, §2, §3, §4, §5, §6

SETFA (giant foxtail) = system: SETFA (giant foxtail)
Source text: as §1, §2, §3, §4, §5, §6

ABUTH (velvet leaf) = system: ABUTH (velvet leaf)
Source text: as §1, §2, §3, §4, §5, §6

Measured: herbicidal activity against harmful plant

CC(C)OC(=O)c1cc(-n2c(Cl)cc(C(F)(F)F)cc2=O)c(F)cc1Cl [Example 1, Isopropyl 2-Chloro-5-[2-chloro-6-oxo-4-(trifluoromethyl)-1-(6H)-pyridinyl]-4-fluorobenzoate]
very good activity: all assays above
